One test addresses T1, RET (V804M) (Homo sapiens, UniProt P07949, V804M).
T1 construct: purchased Reaction Biology Corporation (contract assay)
Description: Biochemical kinase assay. To be noted: 10 μM ATP. How it is done: (§1) The biochemical kinase assay was performed at Reaction Biology Corporation (www.reactionbiology.com, Malvern, Pa.) following the procedures described in the reference (Anastassiadis T, et al Nat Biotechnol. 2011, 29, 1039). Specific kinase/substrate pairs along with required cofactors were prepared in reaction buffer; 20 mM Hepes pH 7.5, 10 mM MgCl2, 1 mM EGTA, 0.02% Brij35, 0.02 mg/ml BSA, 0.1 mM Na3VO4, 2 mM DTT, 1% DMSO. Compounds were delivered into the reaction, followed ˜20 minutes later by addition of a mixture of ATP (Sigma, St. Louis Mo.) and ^33P ATP (Perkin Elmer, Waltham Mass.) to a final concentration of 10 μM. Reactions were carried out at room temperature for 120 min, followed by spotting of the reactions onto P81 ion exchange filter paper (Whatman Inc., Piscataway, N.J.). Unbound phosphate was removed by extensive washing of filters in 0.75% phosphoric acid. […] IC50 values and curve fits were obtained using Prism (GraphPad Software).

A further test deals with T2, RET (R813Q) (Homo sapiens, UniProt P07949, R813Q).
T2 construct: purchased Reaction Biology Corporation (contract assay)
Description: Biochemical kinase assay. To be noted: 10 μM ATP. How it is done: as §1

The next test concerns the target T3, RET (L790F) (Homo sapiens, UniProt P07949, L790F).
T3 construct: purchased Reaction Biology Corporation (contract assay)
The experiment in a line: Biochemical kinase assay. Particulars: 10 μM ATP. How it is done:
as §1

The next test deals with T4, RET (G691S) (Homo sapiens, UniProt P07949, G691S).
T4 construct: purchased Reaction Biology Corporation (contract assay)
The experiment in a line: Biochemical kinase assay. Particulars: 10 μM ATP. How it is done:
as §1

The target in another test is T5, RET (S904F) (Homo sapiens, UniProt P07949, S904F).
T5 construct: purchased Reaction Biology Corporation (contract assay)
Description: Biochemical kinase assay. To be noted: 10 μM ATP. How it is done: as §1

A further test concerns the target T6, RET (V778I) (Homo sapiens, UniProt P07949, V778I).
T6 construct: purchased Reaction Biology Corporation (contract assay)
The experiment in a line: Biochemical kinase assay. Particulars: 10 μM ATP. How it is done:
as §1

Another test has as its target T7, RET (M918T) (Homo sapiens, UniProt P07949, M918T).
T7 construct: purchased Reaction Biology Corporation (contract assay)
Description: Biochemical kinase assay. Particulars: 10 μM ATP. How it is done: as §1

The next test concerns the target T8, RET (V804L) (Homo sapiens, UniProt P07949, V804L).
T8 construct: purchased Reaction Biology Corporation (contract assay)
Description: Biochemical kinase assay. To be noted: 10 μM ATP. How it is done: as §1

In another test the target is T9, RET (E762Q) (Homo sapiens, UniProt P07949, E762Q).
T9 construct: purchased Reaction Biology Corporation (contract assay)
Description: Biochemical kinase assay. Particulars: 10 μM ATP. How it is done:
as §1

The target in a further test is T10, RET (Homo sapiens, UniProt P07949).
T10 construct: purchased Reaction Biology Corporation (contract assay)
The experiment in a line: Biochemical kinase assay. Particulars: 10 μM ATP. How it is done: as §1, with “Specific” for “The biochemical kinase assay was performed at Reaction Biology Corporation (www.reactionbiology.com, Malvern, Pa.) following the procedures described in the reference (Anastassiadis T, et al Nat Biotechnol. 2011, 29, 1039). Specific”

A further test concerns the target T11, SRC (Homo sapiens, UniProt P12931).
T11 construct: purchased Reaction Biology Corporation (contract assay)
Description: Biochemical kinase assay. To be noted: 10 μM ATP. How it is done: as §1, with “Specific” for “The biochemical kinase assay was performed at Reaction Biology Corporation (www.reactionbiology.com, Malvern, Pa.) following the procedures described in the reference (Anastassiadis T, et al Nat Biotechnol. 2011, 29, 1039). Specific”

The target in a further test is T12, HCK (Homo sapiens, UniProt P08631).
T12 construct: purchased Reaction Biology Corporation (contract assay)
The experiment in a line: Biochemical kinase assay. Particulars: 10 μM ATP. How it is done: as §1, with “Specific” for “The biochemical kinase assay was performed at Reaction Biology Corporation (www.reactionbiology.com, Malvern, Pa.) following the procedures described in the reference (Anastassiadis T, et al Nat Biotechnol. 2011, 29, 1039). Specific”

The next test concerns the target T13, FYN (Homo sapiens, UniProt P06241).
T13 construct: purchased Reaction Biology Corporation (contract assay)
The experiment in a line: Biochemical kinase assay. To be noted: 10 μM ATP. How it is done:
as §1, with “Specific” for “The biochemical kinase assay was performed at Reaction Biology Corporation (www.reactionbiology.com, Malvern, Pa.) following the procedures described in the reference (Anastassiadis T, et al Nat Biotechnol. 2011, 29, 1039). Specific”

The target in another test is T14, LYN (Homo sapiens, UniProt P07948).
T14 construct: purchased Reaction Biology Corporation (contract assay)
The experiment in a line: Biochemical kinase assay. Particulars: 10 μM ATP. How it is done: as §1, with “Specific” for “The biochemical kinase assay was performed at Reaction Biology Corporation (www.reactionbiology.com, Malvern, Pa.) following the procedures described in the reference (Anastassiadis T, et al Nat Biotechnol. 2011, 29, 1039). Specific”

A further test concerns the target T15, RET-NCOA4 (PTC3) (Homo sapiens, UniProt P07949).
T15 construct: NCOA4 fragment (fusion partner); purchased Reaction Biology Corporation (contract assay)
The experiment in a line: Biochemical kinase assay. To be noted: 10 μM ATP. How it is done:
as §1, with “Specific” for “The biochemical kinase assay was performed at Reaction Biology Corporation (www.reactionbiology.com, Malvern, Pa.) following the procedures described in the reference (Anastassiadis T, et al Nat Biotechnol. 2011, 29, 1039). Specific”

The target of another test is T16, YES/YES1 (Homo sapiens, UniProt P07947).
T16 construct: purchased Reaction Biology Corporation (contract assay)
The experiment in a line: Biochemical kinase assay. Particulars: 10 μM ATP. How it is done: as §1, with “Specific” for “The biochemical kinase assay was performed at Reaction Biology Corporation (www.reactionbiology.com, Malvern, Pa.) following the procedures described in the reference (Anastassiadis T, et al Nat Biotechnol. 2011, 29, 1039). Specific”

The next test addresses T17, Ba/F3 KIF5B-RET_V804M (Homo sapiens, UniProt P07949, V804M, cells depend on it).
T17 construct: fused on or other part: P33176 (Kinesin-1 heavy chain)
Description: Cell proliferation assay (CellTiter-Glo). It is filed as cell-based. Particulars: anti-cell proliferation, 72 hours; read-out: Ba/F3 KIF5B-RET_V804M IC50. The source says: (§2) The KIF5B-RET gene was synthesized at GenScript and cloned into pCDH-CMV-MCS-EF1-Puro plasmid (System Biosciences, Inc). KIF5B-RET point mutation V804M and G810C were generated at GenScript by PCR and confirmed by sequencing. Ba/F3-KIF5B-RET wild type and mutant were generated by transducing Ba/F3 cells with lentivirus containing KIF5B-RET wide type or mutant. Stable cell lines were selected by puromycin treatment, followed by IL-3 withdrawal. Briefly, 5×10^6 Ba/F3 cells were transduced with lentivirus supernatant in the presence of 8 μg/mL protamine sulfate. The transduced cells were subsequently selected with 1 μg/mL puromycin in the presence of IL3-containing medium RPMI1640, plus 10% FBS. After 10-12 days of selection, the surviving cells were further selected for […] independent growth.
(§3) Two thousand cells per well were seeded in 384 well white plate for 24 hrs, and then treated with compounds for 72 hours (37° C., 5% CO2). Cell proliferation was measured using CellTiter-Glo luciferase-based ATP detection assay (Promega) following the manufactures's protocol. IC50 determinations were performed using GraphPad Prism software (GraphPad, Inc., San Diego, Calif.).

The target in another test is T18, Ba/F3 KIF5B-RET (Homo sapiens, UniProt P07949).
T18 construct: Ba/F3 KIF5B-RET IC50 (nM); other: anti-cell proliferation, 72 hours; fused on or other part: P33176 (Kinesin-1 heavy chain)
Description: Cell proliferation assay (CellTiter-Glo). It is filed as cell-based. Particulars: anti-cell proliferation, 72 hours; read-out: Ba/F3 KIF5B-RET IC50.
Text: as §2, §3
(In ATP-based viability assays light output follows the ATP content of the culture.)

Another test addresses T19, Ba/F3 KIF5B-RET_G810C (Homo sapiens, UniProt P07949, G810C, cells depend on it).
T19 construct: fused on or other part: P33176 (Kinesin-1 heavy chain)
The experiment in a line: Cell proliferation assay (CellTiter-Glo). It is filed as cell-based. To be noted: anti-cell proliferation, 72 hours; read-out: Ba/F3 KIF5B-RET_G810C IC50.
Text: as §2, §3

For orientation: IC50 means the concentration needed to halve the response being measured. The low end stands for greater potency, the high end for weaker potency.

T16 sequence (P07947 whole entry): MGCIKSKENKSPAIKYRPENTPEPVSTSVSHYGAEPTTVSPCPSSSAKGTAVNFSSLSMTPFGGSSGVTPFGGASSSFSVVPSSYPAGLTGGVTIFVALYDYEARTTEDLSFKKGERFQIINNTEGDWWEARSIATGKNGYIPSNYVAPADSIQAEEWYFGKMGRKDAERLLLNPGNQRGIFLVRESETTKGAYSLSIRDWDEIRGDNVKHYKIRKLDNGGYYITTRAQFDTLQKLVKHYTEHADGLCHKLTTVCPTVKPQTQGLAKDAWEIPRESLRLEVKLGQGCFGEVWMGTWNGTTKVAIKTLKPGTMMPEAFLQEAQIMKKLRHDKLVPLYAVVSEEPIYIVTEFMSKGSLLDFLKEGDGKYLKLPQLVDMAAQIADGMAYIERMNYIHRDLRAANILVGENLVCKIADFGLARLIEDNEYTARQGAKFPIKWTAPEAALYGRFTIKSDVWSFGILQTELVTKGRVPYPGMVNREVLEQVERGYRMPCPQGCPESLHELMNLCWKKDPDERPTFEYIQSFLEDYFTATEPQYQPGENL
T18 sequence (P07949 whole entry, change not shown, the tested form may be a part): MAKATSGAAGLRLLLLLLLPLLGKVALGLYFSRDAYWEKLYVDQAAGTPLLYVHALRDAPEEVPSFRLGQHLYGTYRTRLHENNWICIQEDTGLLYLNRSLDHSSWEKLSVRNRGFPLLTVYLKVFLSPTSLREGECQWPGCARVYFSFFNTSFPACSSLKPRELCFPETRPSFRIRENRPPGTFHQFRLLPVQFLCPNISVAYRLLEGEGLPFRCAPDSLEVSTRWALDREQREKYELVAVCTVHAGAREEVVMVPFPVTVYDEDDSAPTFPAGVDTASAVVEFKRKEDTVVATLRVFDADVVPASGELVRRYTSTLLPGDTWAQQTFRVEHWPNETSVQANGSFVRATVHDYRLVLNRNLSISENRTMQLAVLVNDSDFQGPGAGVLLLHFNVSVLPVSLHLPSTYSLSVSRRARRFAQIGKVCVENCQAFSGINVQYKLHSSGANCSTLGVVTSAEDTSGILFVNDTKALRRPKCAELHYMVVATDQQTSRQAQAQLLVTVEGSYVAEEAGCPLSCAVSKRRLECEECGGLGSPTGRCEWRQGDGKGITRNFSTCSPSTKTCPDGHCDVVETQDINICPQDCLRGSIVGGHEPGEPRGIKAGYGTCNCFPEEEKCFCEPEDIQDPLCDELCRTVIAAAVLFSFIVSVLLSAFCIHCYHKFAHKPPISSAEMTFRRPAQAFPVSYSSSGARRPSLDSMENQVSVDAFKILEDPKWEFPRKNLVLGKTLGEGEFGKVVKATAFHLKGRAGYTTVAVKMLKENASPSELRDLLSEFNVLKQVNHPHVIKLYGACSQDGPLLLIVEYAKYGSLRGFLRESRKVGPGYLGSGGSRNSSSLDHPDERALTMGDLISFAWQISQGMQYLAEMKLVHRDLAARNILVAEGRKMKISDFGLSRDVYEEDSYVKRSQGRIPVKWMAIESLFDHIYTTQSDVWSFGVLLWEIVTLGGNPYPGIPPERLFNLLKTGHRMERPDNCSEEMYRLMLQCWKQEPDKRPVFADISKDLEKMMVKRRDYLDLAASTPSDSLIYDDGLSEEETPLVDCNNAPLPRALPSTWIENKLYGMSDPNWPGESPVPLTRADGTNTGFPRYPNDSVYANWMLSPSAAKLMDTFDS
T17 sequence (P07949 whole entry V804M, the tested form may be a part): as the sequence (P07949 whole entry, change not shown, the tested form may be a part) above, with V804M counted along it
T7 sequence (P07949 29-1114 M918T): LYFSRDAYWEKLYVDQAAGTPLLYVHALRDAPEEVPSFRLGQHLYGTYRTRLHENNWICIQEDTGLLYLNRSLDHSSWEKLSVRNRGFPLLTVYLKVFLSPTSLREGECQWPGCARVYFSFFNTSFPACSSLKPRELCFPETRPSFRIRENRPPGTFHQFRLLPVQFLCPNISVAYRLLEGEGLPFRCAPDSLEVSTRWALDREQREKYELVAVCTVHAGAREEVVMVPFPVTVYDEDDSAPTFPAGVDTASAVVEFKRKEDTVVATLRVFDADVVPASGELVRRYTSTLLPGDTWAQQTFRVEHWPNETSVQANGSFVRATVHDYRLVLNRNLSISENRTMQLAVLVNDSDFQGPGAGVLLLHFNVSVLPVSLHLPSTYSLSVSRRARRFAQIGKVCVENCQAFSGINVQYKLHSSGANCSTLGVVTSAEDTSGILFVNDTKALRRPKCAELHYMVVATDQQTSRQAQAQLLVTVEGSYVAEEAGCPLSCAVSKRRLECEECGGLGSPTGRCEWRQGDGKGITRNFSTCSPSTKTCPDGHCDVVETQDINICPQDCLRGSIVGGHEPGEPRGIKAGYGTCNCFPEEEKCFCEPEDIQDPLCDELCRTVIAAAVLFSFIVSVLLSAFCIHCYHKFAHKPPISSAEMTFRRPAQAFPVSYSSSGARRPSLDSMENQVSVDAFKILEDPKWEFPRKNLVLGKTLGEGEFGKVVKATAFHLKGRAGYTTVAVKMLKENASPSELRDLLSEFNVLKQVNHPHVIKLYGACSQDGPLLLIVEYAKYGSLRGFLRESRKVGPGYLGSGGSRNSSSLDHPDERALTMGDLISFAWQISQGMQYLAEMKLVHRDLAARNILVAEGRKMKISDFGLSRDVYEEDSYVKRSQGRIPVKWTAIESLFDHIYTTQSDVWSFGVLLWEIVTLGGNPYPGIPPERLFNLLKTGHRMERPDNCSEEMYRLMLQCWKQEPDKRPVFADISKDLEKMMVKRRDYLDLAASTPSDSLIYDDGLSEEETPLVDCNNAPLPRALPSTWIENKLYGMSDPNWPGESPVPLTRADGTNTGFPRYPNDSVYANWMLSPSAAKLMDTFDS
T15 sequence (P07949 with tags, fused parts or gaps): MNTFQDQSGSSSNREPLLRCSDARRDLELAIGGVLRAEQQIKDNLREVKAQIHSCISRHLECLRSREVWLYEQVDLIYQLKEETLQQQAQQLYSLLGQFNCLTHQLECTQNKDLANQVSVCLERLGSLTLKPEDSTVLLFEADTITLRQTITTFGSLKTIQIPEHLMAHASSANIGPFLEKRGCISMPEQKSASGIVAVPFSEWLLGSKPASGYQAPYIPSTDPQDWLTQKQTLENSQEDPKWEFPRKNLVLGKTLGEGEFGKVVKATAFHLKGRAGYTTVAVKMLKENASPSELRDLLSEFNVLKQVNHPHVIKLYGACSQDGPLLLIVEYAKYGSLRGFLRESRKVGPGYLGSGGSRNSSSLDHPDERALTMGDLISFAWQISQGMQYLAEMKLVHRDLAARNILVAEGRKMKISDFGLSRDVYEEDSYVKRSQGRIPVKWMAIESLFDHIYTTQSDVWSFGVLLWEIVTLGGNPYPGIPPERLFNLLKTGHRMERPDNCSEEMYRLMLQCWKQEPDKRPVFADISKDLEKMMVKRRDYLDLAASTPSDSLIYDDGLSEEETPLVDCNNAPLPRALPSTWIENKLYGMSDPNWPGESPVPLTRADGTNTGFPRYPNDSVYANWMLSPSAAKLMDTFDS
T13 sequence (P06241 whole entry): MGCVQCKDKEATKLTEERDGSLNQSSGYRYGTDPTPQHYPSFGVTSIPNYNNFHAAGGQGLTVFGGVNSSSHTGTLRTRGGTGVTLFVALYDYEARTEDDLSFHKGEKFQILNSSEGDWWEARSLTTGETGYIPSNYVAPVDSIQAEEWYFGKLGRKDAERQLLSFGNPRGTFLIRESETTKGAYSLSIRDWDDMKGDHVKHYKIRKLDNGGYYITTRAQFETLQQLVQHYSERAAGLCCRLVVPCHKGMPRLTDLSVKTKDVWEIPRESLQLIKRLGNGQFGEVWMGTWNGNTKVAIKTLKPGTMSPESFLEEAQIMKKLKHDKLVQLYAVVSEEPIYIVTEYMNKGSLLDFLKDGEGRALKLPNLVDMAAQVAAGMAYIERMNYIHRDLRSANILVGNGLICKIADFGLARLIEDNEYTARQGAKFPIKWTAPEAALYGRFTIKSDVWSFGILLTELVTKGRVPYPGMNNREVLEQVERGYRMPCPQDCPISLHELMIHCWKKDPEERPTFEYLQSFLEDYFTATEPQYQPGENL

On to `C[C@H]1CNC(=O)c2cnn3cc4c(nc23)N(Cc2cc(F)cnc2O1)[C@@H]1CCC[C@@H]1O4` [Compound I, (3aR,11S,20aS)-7-fluoro-11-methyl-2,3,3a,12,13,20a-hexahydro-1H,5H-17,19-(metheno)cyclopenta[5,6][1,4]oxazino[3,4-i]pyrazolo[4,3-f]pyrido[3,2-l][1,4,8,10]oxatriazacyclotridecin-14(11H)-one], for which the half-inhibitory concentration (IC50) is 8.1 nM on RET (V804M); 1.7 nM at RET (R813Q); 0.4 nM against RET (L790F); 1.8 nM at RET (G691S); 0.5 nM against RET (S904F); 0.1 nM at RET (V778I). Moreover, the half-maximal inhibitory concentration (IC50) against RET (M918T) stood at 0.3 nM; against RET (V804L) it was 6.2 nM; on RET (E762Q), 1 nM; on RET it was 1 nM; against SRC it was 1.5 nM; against HCK, 2.7 nM. Further, the IC50 on FYN amounted to 1.9 nM; on LYN it was 2 nM; against RET-NCOA4 (PTC3) it was 0.7 nM; on YES/YES1, 2.6 nM. Further, the figures for the GI50 at Ba/F3 KIF5B-RET_V804M, at Ba/F3 KIF5B-RET and on Ba/F3 KIF5B-RET_G810C were 1000 nM, 0.25 nM and under 15 nM, respectively.
